Laboratory results reported in ChEMBL document CHEMBL1201862, “PubChem BioAssay data set” (2004).
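Protocol summary: plate cells (96-well), add compound at 5 concentrations, incubate 48 h, interpolate endpoints linearly. The concentration for 50% growth inhibition is given as GI50.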 The source made the active and inactive calls. Rule as the data show it: active = GI50 up to about 1.1 µM and inactive = higher.

How the values were obtained:
Assay in all cases: NCI-60 cell line screen, 48 h
DLD-1 = tested on: DLD-1
DMS-114 = tested on: DMS-114
DMS-273 = tested on: DMS-273
HOP-18 = tested on: HOP-18
LXFL 529 = tested on: LXFL 529
M19-MEL = tested on: M19-MEL
RXF 631 = tested on: RXF 631
SNB-78 = tested on: SNB-78
XF498 = tested on: XF498

| Structure (SMILES) | GI50 (DLD-1) | GI50 (DMS-114) | GI50 (DMS-273) | GI50 (HOP-18) | GI50 (LXFL 529) | GI50 (M19-MEL) | GI50 (RXF 631) | GI50 (SNB-78) | GI50 (XF498) |
| --- | --- | --- | --- | --- | --- | --- | --- | --- | --- |
| O=C(OCc1ccccc1)n1cccc1 | > 100 µM (inactive) | 55.2 µM (inactive) | > 100 µM (inactive) | > 100 µM (inactive) | > 100 µM (inactive) | > 100 µM (inactive) | > 100 µM (inactive) | > 100 µM (inactive) | 78.2 µM (inactive) |
| Nc1c(C(=O)Nc2ccccc2O)[n+]([O-])c2ccccc2[n+]1[O-] | > 100 µM (inactive) | 20.5 µM (inactive) | 32.6 µM (inactive) | > 100 µM (inactive) | > 100 µM (inactive) | 14.2 µM (inactive) | 50.6 µM (inactive) | > 100 µM (inactive) | – |
| O=C(CSc1nnc(-c2ccc(/N=C\c3ccc(Cl)cc3)cc2)o1)Nc1ccc([N+](=O)[O-])cc1 | – | 16.2 µM (inactive) | 16.5 µM (inactive) | 29 µM (inactive) | 15.8 µM (inactive) | 17.1 µM (inactive) | – | 20 µM (inactive) | 22.9 µM (inactive) |
| CCC12C[N+]3([O-])CCc4c([nH]c5ccccc45)C(C(=O)OC)(c4cc5c(cc4OC)N(C)C4C(O)(C(=O)OC)C(OC(C)=O)C6(CC)C=CCN7CCC54C76)CC(C3)C1O2 (configuration not stated) | 0.883 µM (active) | 0.36 µM (active) | 0.237 µM (active) | 16 µM (inactive) | 0.656 µM (active) | 0.617 µM (active) | – | 0.506 µM (active) | 0.407 µM (active) |
| O=C(c1ccccc1)C(c1ccccc1)C1(O)C(=O)Nc2ccc(Br)cc21 (configuration not stated) | 48.2 µM (inactive) | 21.6 µM (inactive) | 31.6 µM (inactive) | – | 19.8 µM (inactive) | 15.4 µM (inactive) | 33.7 µM (inactive) | > 100 µM (inactive) | – |
| Cc1c(C(=O)C/C(=N/NC(=O)C[N+](C)(C)C)C(=O)Nc2ccc(Cl)cc2)[n+]([O-])c2ccccc2[n+]1[O-] | > 100 µM (inactive) | > 100 µM (inactive) | > 100 µM (inactive) | > 100 µM (inactive) | > 100 µM (inactive) | > 100 µM (inactive) | > 100 µM (inactive) | > 100 µM (inactive) | > 100 µM (inactive) |
| CN(C)C(=S)Nc1nnc(NC23CC4CC(CC(C4)C2)C3)s1.[O-][Cl+3]([O-])([O-])O | – | 19.4 µM (inactive) | 20.6 µM (inactive) | – | – | 19.6 µM (inactive) | – | 39.2 µM (inactive) | – |
| CC(=O)O[C@H]1C(=O)O[C@@H]2C[C@H]3C(C)=CC(=O)[C@@H](O)[C@]3(C)[C@H]3[C@@]4(O)OC[C@]32[C@@H]1[C@@H](C)[C@H]4O | 0.03 µM (active) | 0.0253 µM (active) | 0.0264 µM (active) | 0.177 µM (active) | – | 0.0272 µM (active) | – | 0.0515 µM (active) | 0.031 µM (active) |
| O=C(c1nc2ccc(Cl)cc2nc1O)C(O)c1ccc2c(c1)OCO2 (configuration not stated) | > 100 µM (inactive) | 8.43 µM (inactive) | > 100 µM (inactive) | 12.8 µM (inactive) | 77.6 µM (inactive) | > 100 µM (inactive) | > 100 µM (inactive) | – | > 100 µM (inactive) |
| CSc1nc2c(nc(N)n2C2OC(CO)C(O)C(O)C2O)c(=O)[nH]1 (configuration not stated) | > 100 µM (inactive) | > 100 µM (inactive) | – | > 100 µM (inactive) | > 100 µM (inactive) | > 100 µM (inactive) | > 100 µM (inactive) | > 100 µM (inactive) | 41.3 µM (inactive) |
| Cc1cc(Cl)ccc1NC(=O)C(=O)C(C(=O)c1ccc2ccccc2c1)C1OC(=O)c2ccccc21 (configuration not stated) | 14.3 µM (inactive) | 6.15 µM (inactive) | 12.4 µM (inactive) | 0.544 µM (active) | 6.47 µM (inactive) | 10.1 µM (inactive) | 7.89 µM (inactive) | 10.3 µM (inactive) | – |
| CC1=C2C(=CC(C)(C)C2O)C(=O)C(C)(O)C12CC2 (configuration not stated) | 0.00665 µM (active) | 0.00794 µM (active) | 0.00489 µM (active) | 0.0337 µM (active) | 0.0198 µM (active) | 0.0157 µM (active) | – | 0.00893 µM (active) | 0.00906 µM (active) |
| COc1ccccc1-c1cc(=O)c2cc(C)c(C)c(C(=O)O)c2o1 | > 100 µM (inactive) | > 100 µM (inactive) | > 100 µM (inactive) | – | > 100 µM (inactive) | > 100 µM (inactive) | – | > 100 µM (inactive) | > 100 µM (inactive) |
| O=c1[nH]c(=O)n(C2OC(COP(=O)(O)OP(=O)(O)OC3OC(CO)C(O)C(O)C3O)C(O)C2O)cc1F (configuration not stated) | < 0.0119 µM (active) | 1.13 µM (inactive) | – | 3.22 µM (inactive) | 0.151 µM (active) | 0.191 µM (active) | 0.0716 µM (active) | 0.366 µM (active) | 0.277 µM (active) |
| O=C1N(c2ccc(Cl)cc2)C(=O)C2(SC=NN2Cc2ccccc2)N1c1ccc(Cl)cc1 (configuration not stated) | > 100 µM (inactive) | 12.3 µM (inactive) | – | > 100 µM (inactive) | > 100 µM (inactive) | > 100 µM (inactive) | > 100 µM (inactive) | > 100 µM (inactive) | 28.6 µM (inactive) |
| Cc1cc(=O)oc2cc(OCc3nc4ccccc4c(=O)[nH]3)ccc12 | > 100 µM (inactive) | > 100 µM (inactive) | > 100 µM (inactive) | > 100 µM (inactive) | > 100 µM (inactive) | > 100 µM (inactive) | – | – | > 100 µM (inactive) |
| COC(=O)/C(=N\NC(=O)c1ccccc1O)C(C#N)c1ccc(Cl)cc1 (configuration not stated) | 24.5 µM (inactive) | 24.7 µM (inactive) | – | 69.3 µM (inactive) | 34.3 µM (inactive) | 75.9 µM (inactive) | 36.1 µM (inactive) | 26.2 µM (inactive) | – |
| O=C(CSc1nnc(-c2ccc(/N=C\c3ccc(Cl)cc3)cc2)o1)Nc1cccc([N+](=O)[O-])c1 | – | > 100 µM (inactive) | > 100 µM (inactive) | > 100 µM (inactive) | > 100 µM (inactive) | > 100 µM (inactive) | – | > 100 µM (inactive) | – |
| CCc1c(C#N)c(=O)[nH]c(=O)n1CCN1CCN(C(=O)NCCCCCCNC(=O)N2CCN(CCn3c(CC)c(C#N)c(=O)[nH]c3=O)CC2)CC1 | > 100 µM (inactive) | > 100 µM (inactive) | > 100 µM (inactive) | > 100 µM (inactive) | > 100 µM (inactive) | > 100 µM (inactive) | > 100 µM (inactive) | > 100 µM (inactive) | > 100 µM (inactive) |
| COc1cc(/C=C2\NC(=O)C3Cc4c(OC)c(C)c(OC)c(OC)c4C2N3C)c(OC)c(C)c1OC (configuration not stated) | > 100 µM (inactive) | > 100 µM (inactive) | > 100 µM (inactive) | > 100 µM (inactive) | > 100 µM (inactive) | > 100 µM (inactive) | > 100 µM (inactive) | > 100 µM (inactive) | > 100 µM (inactive) |
| C/C(=N\NC(=S)NC(CCC(=O)O)C(=O)O)c1ccccn1 (configuration not stated) | > 100 µM (inactive) | > 100 µM (inactive) | – | > 100 µM (inactive) | > 100 µM (inactive) | > 100 µM (inactive) | > 100 µM (inactive) | > 100 µM (inactive) | > 100 µM (inactive) |
| O=C1C2=C(c3ccccc31)C(c1ccccc1)N1C(=O)CSC1=N2 (configuration not stated) | > 100 µM (inactive) | 43.1 µM (inactive) | 55.8 µM (inactive) | – | 52 µM (inactive) | > 100 µM (inactive) | 80.9 µM (inactive) | – | > 100 µM (inactive) |
| CC(C)C1=CC23CCC4C(C)(C(=O)O)CCCC4(C)C2CC1C1C(=O)N(c2ccccc2)C(=O)C13 (configuration not stated) | > 100 µM (inactive) | 35.4 µM (inactive) | 36.1 µM (inactive) | > 100 µM (inactive) | 43.9 µM (inactive) | 57.8 µM (inactive) | – | – | 35.2 µM (inactive) |
| CC(CCC=O)CCOCc1ccccc1 (configuration not stated) | > 100 µM (inactive) | 61.2 µM (inactive) | > 95.9 µM (inactive) | > 100 µM (inactive) | > 100 µM (inactive) | > 73.8 µM (inactive) | – | > 100 µM (inactive) | > 100 µM (inactive) |
